Source: patent publication US20070026478A1, “Hemiasterlin affinity probes and their uses” (WYETH, priority 2002, published 2007)
Structures can show the parent of a compound that is named as a salt. Where two headings read alike, the source gives them in different places. Marks after values point to notes of the source that are not given here.

Experiments:
tubulin [1] = molecular target: T1, tubulin (Bos taurus, UniProt P81947+Q6B856); test: Separation of polymerized and free tubulin by centrifugation; type: biochemical, bovine; settings: 50 μM drug, centrifugation at 10,000 g and 100,000 g
T1 construct: MAP-rich bovine brain tubulin (99% purity), Hela cell tubulin (90% purity); purchased Cytoskeleton (Denver, Colo.); host or cells: bovine brain
Method: Tubulin (5 μg) was incubated with 50 μM drug at room temperature for 25 minutes and then centrifuged at either 10,000 g for 15 minutes in a tabletop microfuge or at 100,000 g for 15 minutes in an airfuge. The supernatant was carefully removed to a fresh tube to obtain free tubulin and the pellet was solubilized in SDS-PAGE sample buffer.

bovine brain tubulin [2] = molecular target: T2, bovine brain tubulin (Bos taurus, UniProt P81947+Q6B856); test: Reversible binding affinity assay (tubulin fluorescence)
T2 construct: MAP-rich bovine brain tubulin (99% purity), Hela cell tubulin (90% purity); purchased Cytoskeleton (Denver, Colo.); host or cells: bovine brain
Method: The affinity of both HTI-286 and of non-radiolabled Probe 1 and Probe 2, to bovine brain tubulin was determined by previously published methods (Krishnamurthy et al., Biochem., submitted). Briefly, 5 mg/mL […] tubulin prepared in PEM buffer was pre-incubated with buffer or varying concentrations of test agents in individual quartz cuvettes. The intrinsic tryptophan fluorescence of tubulin (excitation at 560 nm and maximal emission at 580 nm) was measured after pre-incubation for 90 minutes. The change in fluorescence intensity at 580 nm in the presence of compound was fitted to a quadratic equation to obtain apparent dissociation constants (KD) of the test agents.

tubulin [3] = molecular target: T1, tubulin; test: Competition of [3H]-Probe 2 photolabeling of tubulin; type: binding, bovine; settings: 100 μM competitor, 2.5 μM tubulin, 0.25 μM [3H]-Probe 2, room temperature
Method: (§1) Alternatively, a cytosolic preparation of KB-3-1 cell lysates (50 μg) or KB-3-1 cells (40,000 cells) were used in the place of purified tubulin above. The supernatant of mechanically disrupted cells centrifuged at 100,000×g was used as a cytosolic preparation. K-3-1 cells were prepared by growing KB-3-1 cells in a 96-well plate and rinsing them with serum free medium.
Competition binding experiments were performed as described in Section 7.1.5. […] Samples were then irradiated for 2 hours at 4° C. and evaluated by SDS-PAGE and fluorography.

P-glycoprotein = P-glycoprotein (Homo sapiens, UniProt P08183); settings: Loganzo et al., Cancer Res. 2003; cited from earlier work
α-tubulin = molecular target: T3, α-tubulin (Bos taurus, UniProt P81947+Q6B856); test: Subtilisin digestion of tubulin after incubation with various compounds; type: biochemical, bovine; settings: 50 μM drug, subtilisin up to 60 min at room temperature
T3 construct: MAP-rich bovine brain tubulin (99% purity), Hela cell tubulin (90% purity); purchased Cytoskeleton (Denver, Colo.); host or cells: bovine brain
Method: Tubulin (5 μg) was incubated with 50 μM drug at room temperature for 25 minutes and then digested under native conditions with subtilisin (0.05 μg) for 0, 5, 10, 15, 30 and 60 min at room temperature. Enzymatic digestion was stopped with 1 mM PMSF and samples were resolved by SDS-PAGE under conditions that allowed separation of α- and β-tubulin subunits. Gels were then fixed and stained with Coomassie blue.

KB cells = test: Cell proliferation assay in tissue culture (SRB); type: cell-based; settings: Homo sapiens, KB, 72 h
Method: Cell proliferation studies were performed according to procedures described by Loganzo et al. (Cancer Res. 2003, 63:1838-1845). Briefly, KB cells were plated in 96-well plates in 100 μL media at densities pre-determined to produce 60-90% confluence at the time of analysis. Compounds, which were serially diluted into media as 2× stocks, were added to cells in duplicate. After 72 hours of incubation, cell survival was assayed by the SRB assay as described (Rabindran et al., C. Cancer Res. 1998, 58:5850-5858). IC50 values (i.e. the concentration of drug needed to inhibit cell growth by 50%) were used to evaluate drug potency.

bovine MAP-rich tubulin = molecular target: T4, bovine MAP-rich tubulin (Bos taurus, UniProt P81947+Q6B856); test: Tubulin polymerization assay in a cell-free system; type: biochemical; settings: 0.3 μM compound
T4 construct: MAP-rich bovine brain tubulin (99% purity), Hela cell tubulin (90% purity); purchased Cytoskeleton (Denver, Colo.); host or cells: bovine brain
Method: In vitro tubulin polymerization assays were performed according to procedures that have been described elsewhere (Loganzo et al., Cancer Res. 2003, 63:1838-1845). Briefly, bovine MAP-rich tubulin (final concentration 1.5 mg/mL) was dissolved in cold PEM buffer containing 1 mM GTP (GPEM) and centrifuged at 12,000×g for 10 minutes at 4° C. The tubulin solution (100 μL/well) was added rapidly to wells of a low-volume, 96-well plate already containing duplicate aliquots (10 μL) of test compounds in GPEM. Final compound concentrations were 0.3 μM. Control wells contained the same final concentration of DMSO (0.3%). After initiation of the reaction, absorbance at 340 nm was measured every minute for 60 minutes at 24° C. using a SpectraMax Plus plate reader (Molecular Devices, Sunnyvale, Calif.). An increase in absorbance over time indicated an increase in turbidity resulting from tubulin polymerization.

[4] = molecular target: T5, tubulin in whole KB-3-1 cells (Homo sapiens, UniProt P07437+P68363); test: Probe 1 photolabeling in whole KB-3-1 cells; type: cell-based; settings: 250 μM pre-incubation at 37° C. for 15 minutes
T5 construct: a cytosolic preparation of KB-3-1 cell lysates (50 μg) or KB-3-1 cells (40,000 cells) were used in the place of purified tubulin; endogenous in cells; host or cells: KB-3-1 cells (cytosolic supernatant at 100,000 x g, or whole cells)
Method: as §1, with “medium. For experiments with whole cells, 250 μM HTI-286 was used as the competitor molecule during pre-incubation at 37° C. for 15 minutes.” for “medium.”
Samples were irradiated at 360 nm with a Mineralight lamp (UVP, Upland, Calif.) for 30 minutes (for Probe 1), 2 hours (for whole cells with Probe 1), or 2 hours (for Probe 2) at 4° C., unless otherwise noted. Radiation of the benzophenone moiety at this wavelength effectively activates the photoprobe with minimal destruction of protein compared to the shorter wavelengths typically used for azido-containing photoprobes (see, Williams et al., Methods Enzymol. 1986, 126:667-682). If whole cells were used, Laemmli sample buffer was then added to lyse the cells.

bovine brain tubulin [5] = molecular target: T2, bovine brain tubulin; test: Competition of [3H]-Probe 1 photolabeling of tubulin; type: binding; settings: for inhibition of incorporation of radiolabeled Probe 1 into α-tubulin: 1 mM competitor, 37° C. incubation; for Probe 1 photolabeling of tubulin (% of no-competitor control): control (no competitor) = 100
Method: as §1
If whole cells were used, Laemmli sample buffer was then added to lyse the cells.
Low grade SDS (Sigma, catalog No. L5750) was used in the running buffer, when needed, to allow separation of α and β-tubulin subunits. Gels were fixed, stained with Coomassie blue from BioRad (Hercules, Calif.) to ensure equal loading of protein, and sliced. […] Alternatively, gels were incubated with EN^3HANCE according to the manufacturer's instructions (Life Sciences Products, Inc.), washed, and dried prior to exposure of the gel to Biomax MX film from Kodak (Rochester, N.Y.) for fluorography.
After incubation for 30 minutes at 37° C., samples were irradiated with 360 nm UV light for 30 minutes and separated by SDS-PAGE. Gels were exposed to film using fluorographic techniques.
In particular, photolabeling experiments were performed as described in section 7.1.5 above, at both room temperature and at 37° C.

Q: With `CN[C@H](C(=O)N[C@H](C(=O)N(C)[C@H](/C=C(\C)C(=O)O)C(C)C)C(C)(C)C)C(C)(C)c1ccccc1` [HTI-286, N,β,β-trimethyl-L-phenylalany-N^1[(1S,2E)-3-carboxy-1-isopropylbut-2-enyl]-N^1,3-dimethyl-L-valinamide trifluoroacetate] as the molecule, how does the “protein recovered in pellet fractions (tubulin aggregation)” value (tubulin [1]) read?
A: no significant protein was recovered

Q: And the Kd (bovine brain tubulin [2]; Table 1, binding to bovine brain tubulin, read-out: KD)?
A: 400 to 800 nM

Q: What about the Kd (bovine brain tubulin [2]; rhodamine-labeled tubulin, 90 minutes pre-incubation, read-out: apparent binding constant (KD), fluorescence method) of the same molecule?
A: 600 nM

Q: What about the “inhibition of Probe 2 labeling of tubulin” value (tubulin [3]) of the same molecule?
A: 45%

Q: And the “interaction with P-glycoprotein” value (P-glycoprotein)?
A: weak interaction

Q: What about the “protection of α-tubulin from subtilisin cleavage” value (α-tubulin) of the same molecule?
A: unable to cleave α-tubulin even after 60 minutes

Q: What about the IC50 (KB cells) of the same molecule?
A: 0.96 nM

Q: What about the inhibition at 0.3 µM (bovine MAP-rich tubulin) of the same molecule?
A: 88%

Q: What about the “tubulin polymerization (% inhibition)” value (bovine MAP-rich tubulin; 0.3 µM) of the same molecule?
A: 87.5 ± 12.2 (n = 49) %

Q: And the “competition of radiolabeled Probe 1 labeling in whole cells” value [4]?
A: eliminates the specific labeling of the 50 kDa tubulin band

Q: What about the “inhibition of incorporation of radiolabeled Probe 1 into α-tubulin” value (bovine brain tubulin [5]; 0.25 μM radiolabeled Probe 1, 2.5 μM tubulin) of the same molecule?
A: completely inhibits

Q: And the “inhibition of incorporation of radiolabeled Probe 1 into α-tubulin” value (bovine brain tubulin [5]; 2.5 μM radiolabeled Probe 1, 2.5 μM tubulin)?
A: more than 50%

Q: And the “reduction of Probe 1 photolabeling of tubulin” value (bovine brain tubulin [5]; 37° C.)?
A: about 50%

Q: And the “Probe 1 photolabeling of tubulin (% of no-competitor control)” value (bovine brain tubulin [5]; 37° C., 100 μM competitor)?
A: 47^† %

Q: And the “Probe 1 photolabeling of tubulin (% of no-competitor control)” value (bovine brain tubulin [5]; Room Temp., 2.5 μM tubulin, 0.25 μM radiolabeled Probe 1, 100 μM competitor)?
A: 27 ± 4%

Q: And the IC50 (bovine brain tubulin [5]; room temperature, 2.5 μM tubulin, 0.25 μM radiolabeled Probe 1, read-out: IC50 for inhibition of Probe 1 photolabeling of tubulin)?
A: 7 µM

Q: What about the “reduction of Probe 1 photolabeling of tubulin” value (bovine brain tubulin [5]; room temperature, 400-fold molar excess (100 μM) competitor, 2.5 μM tubulin, 0.25 μM radiolabeled Probe 1) of the same molecule?
A: approximately 72%
